{
  "source": "patent US20190302114A1",
  "about": "“METHOD FOR DETECTING THE PRESENCE OF MYC[…] IN SAMPLE USING I[…] PHO[…]” (KEI INTERNATIONAL LIMITED, priority 2016, published 2019)",
  "format_in_all_cases": "binding",
  "key": {"[1]": {"system": "antibodies against mycobacterial material in human serum", "assay": "ELISA with antigen immobilised on ELISA plates, rabbit anti-human IgG HRP as secondary antibody"}, "[2]": {"system": "antibodies against mycobacterial material in human serum", "assay": "ELISA with antigen immobilised on ELISA plates, rabbit anti-human IgM HRP as secondary antibody", "conditions": "for tuberculosis specific binding of antibodies to the immobilised antigen: overall conclusion from TB patient versus healthy samples; for background ELISA signal (absorbance at 450 nm) in healthy persons: serum of healthy persons, 1:20, 'lower' is relative to immobilised mycolic acid"}, "[3]": {"system": "antibodies against mycobacterial material in human serum", "assay": "ELISA with diacyl glycolipid antigen of formula (XIII) immobilised via the terminal thio group"}, "[4]": {"conditions": "serum of smear positive TB patients 1-9 (+)"}},
  "data": [
    {"compound": "CCCCCCCC(C)CCCC(C)CCCC(C)CCCC(C)CCCC(C)CCCOP(=O)(O)O[C@@H]1O[C@H](CO)[C@@H](O)[C@H](O)[C@@H]1O", "note": "(stereo partly drawn) [β-mannosyl phosphomycoketide]", "values": [
      {"measurement": "tuberculosis specific binding of antibodies to the immobilised antigen", "setting": "[1]; overall conclusion, in particular smear positive samples", "result": "very high tuberculosis specific binding"},
      {"measurement": "background ELISA signal (absorbance at 450 nm) in healthy persons", "setting": "[1]; serum of healthy persons, 1:20, 'lower' is relative to immobilised mycolic acid", "result": "markedly lower"},
      {"measurement": "absorbance signal of samples from smear positive patients versus healthy persons", "setting": "[1]; [4]", "result": "significantly higher than the signal obtained in the healthy persons"}
    ]},
    {"compound": "C/C(=C\\C[n+]1cnc2c(ncn2[C@@H]2O[C@H](CO)C(O)[C@@H]2O)c1N)CC[C@@]1(C)[C@@H]2CCCC(C)(C)C2=CC[C@@H]1C", "note": "(stereo partly shown) [1-tuberculosinyladenosine]", "values": [
      {"measurement": "tuberculosis specific binding of antibodies to the immobilised antigen", "setting": "[2]", "result": "very high tuberculosis specific binding"},
      {"measurement": "background ELISA signal (absorbance at 450 nm) in healthy persons", "setting": "[2]", "result": "markedly lower"}
    ]},
    {"compound": "2-palmitoyl-3-hydroxyphthioceranoyl-2′-sulfate-α-α′-D-trehalose [Ac2SGL]", "values": [
      {"measurement": "tuberculosis specific binding of antibodies to the immobilised antigen", "setting": "[2]", "result": "very high tuberculosis specific binding"},
      {"measurement": "background ELISA signal (absorbance at 450 nm) in healthy persons", "setting": "[2]", "result": "markedly lower"},
      {"measurement": "absorbance signal of samples from smear negative patients versus healthy persons", "setting": "[2]; serum of smear negative TB patients 11-18 (−)", "result": "significantly higher than the signal of the healthy persons"},
      {"measurement": "absorbance signal of samples from smear positive patients versus healthy persons", "setting": "[2]; [4]", "result": "higher than the signal of the healthy persons"}
    ]},
    {"compound": "CCCCCCCCCCCCCCCCCC[C@H](C)C[C@H](C)[C@@H](O)[C@H](C)C(=O)O[C@@H]1C(OC(=O)CCCCCCCCCCCCCCCS)[C@@H](O[C@H]2OC(CO)[C@@H](O)C(O)[C@H]2O)OC(CO)[C@H]1O", "note": "(stereo partly shown) [formula (XIII)]", "values": [
      {"measurement": "background ELISA signal in healthy persons", "setting": "[3]; healthy persons (n=4)", "result": "markedly lower"},
      {"measurement": "tuberculosis specific binding of antibodies to the immobilised antigen", "setting": "[3]; overall conclusion, most significant in smear negative samples", "result": "very high tuberculosis specific binding"},
      {"measurement": "absorbance signal of samples from smear negative patients versus healthy persons", "setting": "[3]; smear negative patients (n=32), very low standard deviation", "result": "significantly higher than the signal of the healthy persons"},
      {"measurement": "absorbance signal of samples from smear positive patients versus healthy persons", "setting": "[3]; smear positive patients (n=9), rather high standard deviation", "result": "higher than the signal of the healthy persons"}
    ]}
  ]
}
